Here are results for 54 molecules from patent publication US20160038485A1, “PHASE 2 INDUCERS AND RELATED SIGNALING PATHWAYS PROTECT CARTILAGE AGAINST INFLAMMATION, APOPTOSIS AND STRESS” (THE JOHNS HOPKINS UNIVERSITY, priority 2006, published 2016).

One experiment concerns T/C28a2 cells. The experiment in a line: Total glutathione (GSH) levels in shear-activated chondrocytes. The format is cell-based, human. As to conditions: T/C28a2, high shear (20 dyn/cm^2); SFN 1.25 μM, CAY10404 6.75 μM, NS398 30 μM. The method, then:
(§1) Cell Culture and Shear Stress Exposure: Human T/C28a2 chondrocytic cells were grown (37° C., 5% CO2) in 1:1 Ham's F-12/DMEM (Biowhittaker) supplemented with 10% FBS. Prior to shear exposure, T/C28a2 cells were incubated for 24 hours in serum-free medium containing 1% Nutridoma-SP (Roche), a low-protein serum replacement that maintains chondrocyte phenotype. Primary HUVECs were cultured as described (Goldring, M. B., 2004). T/C28a2 cells were exposed to shear stress in media containing 1% Nutridoma by use of a parallel-plate flow chamber with a recirculating flow loop (37° C., 5% CO2) (10). HUVECs were treated similarly by circulating media supplemented with 10% FBS.
(§2) Cell Viability, NQO1 activity, Glutathione levels, and Prostaglandin (PG)E2 production: Cell viability was monitored with the MTT assay (Gao, X. et al. 2001). NQO1 activity and total GSH (oxidized and reduced) levels of cell lysates were determined in 96-well microtiter plates. PGE2 levels were determined in media by the Prostaglandin E2 monoclonal EIA kit (Cayman Chemical).
Regarding `CS(=O)(=O)Nc1ccc([N+](=O)[O-])cc1OC1CCCCC1` [NS398], the “shear-induced suppression of intracellular GSH levels” value was “indistinguishable from those with CAY10404”.

With `CS(=O)(=O)c1ccc(-c2noc(C(F)(F)F)c2-c2ccccc2)cc1` [CAY10404], the “shear-induced suppression of intracellular GSH levels” value is listed as “reduced the shear-induced down-regulation”.

The next experiment has as its system T/C28a2 cells. In words: Shear-induced apoptosis: DNA fragmentation (TUNEL) and mitochondrial membrane depolarization. Format: cell-based, human. As to conditions: 20 dyn/cm^2, 48 h; D3T 5 μM, CAY10404 6.75 μM, NS398 30 μM. On the procedure: as §1
DNA Fragmentation and Mitochondrial Depolarization: For DNA fragmentation, cells were fixed in 4% paraformaldehyde for 1 hour at 25° C., washed 2× in PBS, and permeabilized briefly in 0.1% Triton-X100/0.1% sodium citrate on ice. Subsequently, cells were washed 2× in PBS, labeled using the In Situ Cell Death Kit (Roche), and analyzed by flow cytometry. To quantify Mitochondrial Membrane Potential (MMP), cells were labeled using the MitoProbe JC-I Kit (Molecular Probes).
Consider `CS(=O)(=O)Nc1ccc([N+](=O)[O-])cc1OC1CCCCC1` [NS398], for which the “shear-induced apoptosis (DNA fragmentation TUNEL, mitochondrial membrane depolarization MMP)” value is listed as “marked reduction”.

For `CS(=O)(=O)c1ccc(-c2noc(C(F)(F)F)c2-c2ccccc2)cc1` [CAY10404], the “shear-induced apoptosis (DNA fragmentation TUNEL, mitochondrial membrane depolarization MMP)” value was “marked reduction”.

The test system of a further experiment is NQO1. The experiment in a line: NQO1 enzyme activity in shear-activated chondrocytes. Format: cell-based, human. As to conditions: T/C28a2, high shear (20 dyn/cm^2); SFN 1.25 μM, D3T 5 μM, CAY10404 6.75 μM, NS398 30 μM. The method, then:
as §1, §2
Turning to `CS(=O)(=O)Nc1ccc([N+](=O)[O-])cc1OC1CCCCC1` [NS398], the “shear-induced suppression of NQO1 activity” value is “indistinguishable from those with CAY10404”.

Regarding `CS(=O)(=O)c1ccc(-c2noc(C(F)(F)F)c2-c2ccccc2)cc1` [CAY10404], the “shear-induced suppression of NQO1 activity” value is “reduced the shear-induced down-regulation”.

The subject of the next experiment is T/C-28a2 cells. The experiment in a line: qRT-PCR transcript ratios (shear/static) in chondrocytes. The format is cell-based, human. As to conditions: Wy14643 10 μM pre-treatment; 20 dyn/cm^2, 48 h; mean + range (n = 2). On the procedure:
as §1
(§3) Quantitative Real-Time PCR (qRT-PCR) was used to verify DNA microarray data. Incorporation of SYBR Green into PCR products was monitored with the 7900HT detection system.
Cell Culture and shear stress exposure, microarray hybridization and analysis and quantitative real-time PCR (qRT-PCR) were carried out as in example 1. T/C-28a2 chondrocytes were pre-treated with a specific PPARα ligand, Wy14643 (10 μM) for 2 hours before being subjected to a shear stress level of 20 dyn/cm^2 for 48 hours in the presence of Wy14643. This pharmacological intervention abolished the shear-induced down regulation of the mRNA levels of Nrf2 and phase 2 genes and apoptosis as evidenced by the abrogation of shear-mediated changes of Bcl-w and pro-caspase-9 mRNA expression.
On to `Cc1cccc(Nc2cc(Cl)nc(SCC(=O)O)n2)c1C` [Wy14643], for which the “Bcl-w (Bcl-2-like protein 2) qRT-PCR Transcript Ratio (Shear/Static)” value amounted to 1.0 ± 0.1, the “COX-2 (cyclooxygenase-2) qRT-PCR Transcript Ratio (Shear/Static)” value is 1.3 ± 0.2, the “Caspase-9 precursor qRT-PCR Transcript Ratio (Shear/Static)” value was found to be 1.0 ± 0.1 and the “GCLR (glutamate-cysteine ligase) qRT-PCR Transcript Ratio (Shear/Static)” value is 1.2 ± 0.2. Moreover, the “GST μ1 (glutathione-S-transferase class μ1) qRT-PCR Transcript Ratio (Shear/Static)” value worked out at 1.3 ± 0.2, the “MMP-9 (matrix metalloproteinase-9) qRT-PCR Transcript Ratio (Shear/Static)” value worked out at 1.3 ± 0.1, the “NQO1 (NAD(P)H:quinone oxidoreductase-1) qRT-PCR Transcript Ratio (Shear/Static)” value worked out at 1.0 ± 0.1 and the “Nrf2 (NF-E2 related factor 2) qRT-PCR Transcript Ratio (Shear/Static)” value came out at 1.6 ± 0.1. Further, the “PGE2 Receptor Subtype EP4 qRT-PCR Transcript Ratio (Shear/Static)” value is 0.6 ± 0.1, the “PPARα qRT-PCR Transcript Ratio (Shear/Static)” value is 1.1 ± 0.2 and the “iNOS (inducible Nitric Oxide Synthase II) qRT-PCR Transcript Ratio (Shear/Static)” value was found to be 1.0 ± 0.2.

The same experiment, now with this note: Wy14643 10 μM, 2 hours before and during 20 dyn/cm^2, 48 hours.
Consider `Cc1cccc(Nc2cc(Cl)nc(SCC(=O)O)n2)c1C` [Wy14643], for which the “shear-induced down regulation of the mRNA levels of Nrf2 and phase 2 genes” value is “abolished”.

Staying with this experiment, now noted: Wy14643 10 μM; 20 dyn/cm^2, 48 hours.
With `Cc1cccc(Nc2cc(Cl)nc(SCC(=O)O)n2)c1C` [Wy14643], the “shear-mediated changes of Bcl-w and pro-caspase-9 mRNA expression (apoptosis)” value is given as “abrogation”.

In a further experiment the test system is phase 2 genes.
Test: not given
As to conditions: cited from earlier work.
Take `CS(=O)(=O)[C@H]1CCC[C@@H](CN=C=S)C1` [GHP 1080]: the CD was 0.41 µM.

Regarding `CP(C)(=O)CCCCN=C=S` [GHP 1078], the CD is 0.43 µM.

For the molecule `CSCCCCCN=C=S` [GHP 1001], the CD is 1.71 µM.

In the case of `O=[N+]([O-])C1CC2CC1CC2N=C=S` (stereo not drawn) [GHP 1072], the CD was 1.05 µM.

`Cc1ccccc1CN=C=S` [GHP 1050]: the CD is 3.7 µM.

As for `CC(=O)CCCCN=C=S` [GHP 1105], the CD was 0.23 µM.

`CSc1ccccc1CCN=C=S` [GHP 1022]: the CD was 7.4 µM.

As for `COc1ccccc1N=C=S` [GHP 1031], the CD is 100 µM.

For `CS(=O)(=O)C1CC2CC1CC2N=C=S` (stereo not drawn) [GHP 1064], the CD was 0.66 µM.

As for `Fc1ccccc1CN=C=S` [GHP 1047], the CD is 13.1 µM.

As to `COc1ccc(CN=C=S)cc1` [GHP 1043], the CD was 25 µM.

As to `CSCCc1ccccc1N=C=S` [GHP 1023], the CD was 100 µM.

As for `CS(=O)(=O)CCCN=C=S` [GHP 1010], the CD was 1.32 µM.

With `O=C(O)CCCCN=C=S` [GHP 1103], the CD is 2.19 µM.

Turning to `S=C=NCc1ccccc1Br` [GHP 1049], the CD is 12.5 µM.

For `CC(=O)C1CC2CC1CC2N=C=S` (stereo not drawn) [GHP 1067], the CD was 0.43 µM.

Turning to `O=CNc1ccc(N=C=S)cc1` [GHP 1033], the CD was 100 µM.

Take `CCOC(=O)C(CCSC)N=C=S` (stereo not drawn) [GHP 1074]: the CD is 2.64 µM.

As for `CN(C)c1ccccc1CN=C=S` [GHP 1045], the CD is 12.5 µM.

Regarding `CSc1ccccc1CN=C=S` [GHP 1046], the CD is 6.8 µM.

Regarding `CSC(=O)CCCCN=C=S` [GHP 1104], the CD was 2.8 µM.

With `S=C=NCc1ccccc1Cl` [GHP 1048], the CD was 14.1 µM.

Take `C[S+]([O-])CCCCCN=C=S` (stereo not drawn) [GHP 1002]: the CD was 0.94 µM.

Take `CS(=O)(=O)CCCCN=C=S` [GHP 1007]: the CD was 0.82 µM.

In the case of `S=C=Nc1ccccc1Cl` [GHP 1032], the CD is 100 µM.

In the case of `COc1ccccc1CN=C=S` [GHP 1041], the CD was 2.41 µM.

On to `COc1cccc(OC)c1CN=C=S` [GHP 1044], for which the CD is 5.8 µM.

As to `OC1CC2CC(N=C=S)C1C2` (stereo not drawn) [GHP 1076], the CD is 1.10 µM.

Regarding `CCOc1ccccc1CN=C=S` [GHP 1051], the CD was 2.5 µM.

Regarding `CCOC(=O)CN=C=S` [GHP 1061], the CD was 8.2 µM.

`CCCCC(=O)CCCCN=C=S` [GHP 1081]: the CD was 2.0 µM.

For the molecule `COC(=O)C1CC2CC(N=C=S)C1C2` (stereo not drawn) [GHP 1069], the CD was 0.68 µM.

`CC(O)CCCCN=C=S` (stereo not drawn) [GHP 1106]: the CD was 0.35 µM.

Regarding `OC1CC2CC1CC2N=C=S` (stereo not drawn) [GHP 1077], the CD is 1.85 µM.

Regarding `COC(=O)C1CC2CC(N=C=S)C1C2` (stereo not drawn) [GHP 1070], the CD is 1.6 µM.

Regarding `COc1cccc(CN=C=S)c1` [GHP 1042], the CD is 8.65 µM.

Take `CCc1ccccc1CN=C=S` [GHP 1053]: the CD was 12.5 µM.

Consider `N#CCCCCN=C=S` [GHP 1101], for which the CD was 1.97 µM.

`CS(=O)(=O)C1CC2CC(N=C=S)C1C2` (stereo not drawn) [GHP 1068]: the CD was 0.15 µM.

`C[S+]([O-])CCCCN=C=S` (stereo not drawn) [GHP 1005]: the CD is 0.20 µM.

As for `C[S+]([O-])CCCN=C=S` (stereo not drawn) [GHP 1009], the CD was 2.36 µM.

With `N#CC1CC2CC1CC2N=C=S` (stereo not drawn) [GHP 1071], the CD was 0.59 µM.

With `CS(=O)(=O)[C@H]1CCC[C@H](CN=C=S)C1` [GHP 1079], the CD is 0.48 µM.

Turning to `COC(=O)CCCCN=C=S` [GHP 1102], the CD is 2.81 µM.

`CSCCCN=C=S` [GHP 1008]: the CD was 3.52 µM.

In the case of `S=C=NC1CCc2ccccc21` (stereo not drawn) [GHP 1052], the CD was 38.9 µM.

On to `CC(=O)C1CC2CC(N=C=S)C1C2` (stereo not drawn) [GHP 1066], for which the CD is 0.26 µM.

As to `CC(O)C1CC2CC1CC2N=C=S` (stereo not drawn) [GHP 1075], the CD is 0.45 µM.

Take `CS(=O)(=O)[C@H]1CC[C@@H](N=C=S)CC1` [GHF 1073]: the CD was 0.44 µM.

`CS(=O)(=O)CCCCCN=C=S` [GHP 1003]: the CD was 0.98 µM.

As for `CSCc1ccccc1CN=C=S` [GHP 1021], the CD was 4.3 µM.

A further experiment relates to T/C28a2 chondrocytic cells. In words: DNA microarray analysis of shear-induced mRNA response of chondrocytes. The format is cell-based, human. As to conditions: Wy14643 10 μM; 20 dyn/cm^2, 48 hours; cDNA microarray. The method, then: as §1
Microarray Hybridization and Analysis: Cy-3- and Cy-5-labeled probes were mixed, dried, resuspended in hybridization buffer (50% formamide, 10×SSC, 0.2% SDS, COT-I DNA, Poly(A)-DNA), and denatured. The probes were added to microarray slides printed with a set of 32,448 or 39,936 expressed sequence tags (ESTs), allowed to hybridize at 42° C. overnight, and processed as described (Abulencia, J. P., et al. 2003. Hegde, P. et al. 2000). Expression ratios were derived using TIGR Spotfinder (Abulencia, J. P. et al. 2003, Hegde, P. et al. 2000). Differentially expressed genes were identified by Significance Analysis of Microarrays, and analyzed with the software TMEV (Abulencia, J. P. et al. 2003).
as §3
For the molecule `Cc1cccc(Nc2cc(Cl)nc(SCC(=O)O)n2)c1C` [Wy14643], the “shear-mediated up-regulation of JNK2 mRNA levels” value is listed as “nearly abrogates” and the “shear-mediated up-regulation of c-Jun mRNA levels” value is listed as “nearly abrogates”.
